# Experimental data as given in US20070197603A1 (published 2007).
row,SMILES,melting point
1,Cl.Clc1cccc(Cl)c1C1CCN(Cc2c[nH]c3ccccc23)CC1,189 to 190 °C
2,Cc1c(CN2CCC(c3c(Cl)cccc3Cl)CC2)[nH]c2ccccc12,139 to 141 °C
3,Cl.Clc1cccc(Cl)c1C1CCN(Cc2cc3ccccc3[nH]2)CC1,238 to 240 °C
4,Cl.OCCn1c(CN2CCC(c3c(Cl)cccc3Cl)CC2)cc2ccccc21,263 to 265 °C
5,Cc1cccc(C)c1C1CCN(Cc2cc3ccccc3[nH]2)CC1,128 to 130 °C
6,Cl.Clc1cccc(Cl)c1C1CCN(Cc2c(-c3ccccc3)n(Cc3ccccc3)c3ccccc23)CC1,209 to 210 °C

# Further lines, results first:
row,melting point,SMILES
1,162 to 164 °C,Clc1cccc(Cl)c1C1CCN(Cc2[nH]c3ccccc3c2-c2ccccc2)CC1
2,168 to 170 °C,Cc1[nH]c2ccccc2c1CN1CCC(c2c(Cl)cccc2Cl)CC1
3,169 to 171 °C,Cl.Clc1cccc(Cl)c1C1CCN(Cc2c(-c3ccccc3)[nH]c3ccccc23)CC1
4,179 to 184 °C (dec.),Cl.Cn1c(-c2ccccc2)c(CN2CCC(c3c(Cl)cccc3Cl)CC2)c2ccccc21
5,205 to 206 °C,Cl.OCCn1c(-c2ccccc2)c(CN2CCC(c3c(Cl)cccc3Cl)CC2)c2ccccc21
6,150 to 152 °C,CCCn1c(-c2ccccc2)c(CN2CCC(c3c(Cl)cccc3Cl)CC2)c2ccccc21.Cl
